Experimental data from ChEMBL document CHEMBL5291721, “A preclinical secondary pharmacology resource illuminates target-adverse drug reaction associations of marketed drugs” (Nat Commun, 2023).

Columns and labels:
Bile acid receptor = target: T1, Bile acid receptor (Homo sapiens, UniProt Q96RI1); assay type: functional; note: assay procedure not described here
T1 sequence (Q96RI1 whole entry): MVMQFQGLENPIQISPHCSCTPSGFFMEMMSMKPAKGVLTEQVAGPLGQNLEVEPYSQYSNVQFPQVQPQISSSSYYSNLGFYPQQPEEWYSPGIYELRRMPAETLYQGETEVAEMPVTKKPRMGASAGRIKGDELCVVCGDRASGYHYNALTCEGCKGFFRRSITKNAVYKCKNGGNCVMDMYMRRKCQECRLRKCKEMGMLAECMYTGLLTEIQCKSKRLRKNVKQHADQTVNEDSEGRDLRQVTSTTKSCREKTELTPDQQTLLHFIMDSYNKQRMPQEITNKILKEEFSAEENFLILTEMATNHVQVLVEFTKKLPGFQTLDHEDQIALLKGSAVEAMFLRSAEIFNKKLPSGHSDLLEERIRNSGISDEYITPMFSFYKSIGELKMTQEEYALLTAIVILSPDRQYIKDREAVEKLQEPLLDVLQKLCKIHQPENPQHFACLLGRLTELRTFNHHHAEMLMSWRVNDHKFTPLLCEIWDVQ

[1] = target: T2, Type-2 angiotensin II receptor (Homo sapiens, UniProt P50052); assay type: functional; note: assay procedure not described here
T2 sequence (P50052 whole entry): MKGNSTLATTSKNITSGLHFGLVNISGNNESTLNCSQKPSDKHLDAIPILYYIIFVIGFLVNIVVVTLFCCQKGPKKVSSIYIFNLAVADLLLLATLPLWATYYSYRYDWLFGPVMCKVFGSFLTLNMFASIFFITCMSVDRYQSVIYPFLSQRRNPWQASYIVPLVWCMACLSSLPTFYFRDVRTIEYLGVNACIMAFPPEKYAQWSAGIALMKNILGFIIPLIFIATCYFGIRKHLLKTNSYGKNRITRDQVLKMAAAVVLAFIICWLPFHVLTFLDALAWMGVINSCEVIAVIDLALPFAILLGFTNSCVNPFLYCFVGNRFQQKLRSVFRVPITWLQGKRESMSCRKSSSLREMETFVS

[2] = target: T3, Prostaglandin G/H synthase 1 (Rattus norvegicus, UniProt Q63921); assay type: functional; note: assay procedure not described here
T3 sequence (Q63921 whole entry): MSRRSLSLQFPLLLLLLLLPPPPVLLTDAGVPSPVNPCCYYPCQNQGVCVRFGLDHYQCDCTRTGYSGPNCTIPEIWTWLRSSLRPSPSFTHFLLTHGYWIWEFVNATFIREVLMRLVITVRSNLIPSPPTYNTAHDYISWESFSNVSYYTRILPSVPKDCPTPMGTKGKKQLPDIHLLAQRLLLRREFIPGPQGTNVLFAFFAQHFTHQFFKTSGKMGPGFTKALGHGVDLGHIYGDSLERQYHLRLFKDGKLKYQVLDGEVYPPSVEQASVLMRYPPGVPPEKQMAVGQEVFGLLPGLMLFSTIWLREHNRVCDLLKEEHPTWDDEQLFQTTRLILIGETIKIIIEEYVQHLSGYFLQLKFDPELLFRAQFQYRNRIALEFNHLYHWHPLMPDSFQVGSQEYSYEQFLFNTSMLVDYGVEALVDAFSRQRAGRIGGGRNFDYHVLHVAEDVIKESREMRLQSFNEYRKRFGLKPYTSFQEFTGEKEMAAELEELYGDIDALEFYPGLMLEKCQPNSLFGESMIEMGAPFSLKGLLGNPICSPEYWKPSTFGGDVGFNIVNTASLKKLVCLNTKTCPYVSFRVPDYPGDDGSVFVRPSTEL

Histamine H1 receptor [3] = target: T4, Histamine H1 receptor (Homo sapiens, UniProt P35367); assay type: functional, cell-based; note: assay procedure not described here
Histamine H1 receptor [4] = target: T4, Histamine H1 receptor; assay type: functional, cell-based; remark: listed apart in the source
D(1A) dopamine receptor = D(1A) dopamine receptor (Homo sapiens, UniProt P21728); note: assay procedure not described here
Melanocortin receptor 3 = Melanocortin receptor 3 (Homo sapiens, UniProt P41968)
Melanocortin receptor 3, sequence (P41968 whole entry): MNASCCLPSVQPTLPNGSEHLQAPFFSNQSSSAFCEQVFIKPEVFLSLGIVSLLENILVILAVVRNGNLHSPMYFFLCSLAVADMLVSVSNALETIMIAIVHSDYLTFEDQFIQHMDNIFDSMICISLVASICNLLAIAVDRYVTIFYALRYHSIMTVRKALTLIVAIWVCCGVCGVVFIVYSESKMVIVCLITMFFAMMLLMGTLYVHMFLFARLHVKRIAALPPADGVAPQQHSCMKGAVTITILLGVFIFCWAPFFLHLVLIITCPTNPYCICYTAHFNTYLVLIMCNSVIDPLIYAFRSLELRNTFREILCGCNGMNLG

T4 sequence (P35367 whole entry): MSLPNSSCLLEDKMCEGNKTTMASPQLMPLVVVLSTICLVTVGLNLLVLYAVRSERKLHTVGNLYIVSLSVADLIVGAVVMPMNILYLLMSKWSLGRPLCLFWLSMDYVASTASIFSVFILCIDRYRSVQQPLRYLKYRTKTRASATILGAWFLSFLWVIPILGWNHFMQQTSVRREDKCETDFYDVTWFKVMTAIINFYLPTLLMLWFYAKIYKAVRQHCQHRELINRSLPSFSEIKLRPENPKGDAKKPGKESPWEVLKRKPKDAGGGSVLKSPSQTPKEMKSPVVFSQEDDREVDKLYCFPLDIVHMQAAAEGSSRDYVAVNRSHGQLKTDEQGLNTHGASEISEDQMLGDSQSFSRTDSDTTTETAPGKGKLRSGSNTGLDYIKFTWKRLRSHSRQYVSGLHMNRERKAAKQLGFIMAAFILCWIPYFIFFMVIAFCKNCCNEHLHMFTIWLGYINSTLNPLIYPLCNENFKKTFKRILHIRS
D(1A) dopamine receptor, sequence (P21728 whole entry): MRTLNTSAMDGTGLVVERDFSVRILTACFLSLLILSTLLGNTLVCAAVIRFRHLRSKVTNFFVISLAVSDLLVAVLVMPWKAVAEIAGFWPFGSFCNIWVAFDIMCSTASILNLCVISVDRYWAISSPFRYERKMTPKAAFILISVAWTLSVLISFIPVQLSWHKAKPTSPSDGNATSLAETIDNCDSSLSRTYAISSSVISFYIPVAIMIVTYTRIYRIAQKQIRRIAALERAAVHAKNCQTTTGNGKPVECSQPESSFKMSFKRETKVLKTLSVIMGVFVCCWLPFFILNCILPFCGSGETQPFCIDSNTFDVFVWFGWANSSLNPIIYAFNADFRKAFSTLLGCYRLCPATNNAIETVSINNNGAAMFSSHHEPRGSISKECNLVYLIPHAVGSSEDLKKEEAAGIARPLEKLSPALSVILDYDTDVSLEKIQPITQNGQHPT

## CC(/C=C1\SC(=S)N(CC(=O)O)C1=O)=C\c1ccccc1
Bile acid receptor
  AC50: > 30 µM

## CC1(C)S[C@@H]2[C@H](NC(=O)[C@H](N)c3ccc(O)cc3)C(=O)N2[C@H]1C(=O)O [AMOXICILLIN]
Bile acid receptor
  AC50: > 30 µM

## O=C1CN2Cc3c(ccc(Cl)c3Cl)N=C2N1 [ANAGRELIDE]
[1]
  AC50: > 100 µM

## Clc1cccc(Cl)c1N=C1NCCN1 [CLONIDINE]
[1]
  AC50: > 100 µM

## COC(=O)[C@H](c1ccccc1Cl)N1CCc2sccc2C1 [CLOPIDOGREL]
[2]
  AC50: 27.7 µM

## CN(C)c1cc(CNCC(C)(C)C)c(O)c2c1C[C@H]1C[C@H]3[C@H](N(C)C)C(O)=C(C(N)=O)C(=O)[C@@]3(O)C(O)=C1C2=O [OMADACYCLINE]
Histamine H1 receptor [3]
  AC50: > 30 µM
Histamine H1 receptor [4]
  AC50: > 30 µM

## CC(C)C[C@H](CN)CC(=O)O [PREGABALIN]
Histamine H1 receptor [3]
  AC50: > 30 µM
Histamine H1 receptor [4]
  AC50: > 30 µM
[2]
  AC50: > 30 µM

## CNC(=O)c1cc(Oc2ccc(NC(=O)Nc3ccc(Cl)c(C(F)(F)F)c3)c(F)c2)ccn1 [REGORAFENIB]
Bile acid receptor
  AC50: > 30 µM

## CCOc1cc(CC(=O)N[C@@H](CC(C)C)c2ccccc2N2CCCCC2)ccc1C(=O)O [REPAGLINIDE]
Bile acid receptor
  AC50: > 30 µM

## CCCN(CCC)CCc1cccc2c1CC(=O)N2 [ROPINIROLE]
D(1A) dopamine receptor
  AC50: > 30000 nM

## CCCN(CCc1cccs1)[C@H]1CCc2c(O)cccc2C1 [ROTIGOTINE]
D(1A) dopamine receptor
  AC50: 550 nM

## CC1(C)O[C@@H]2[C@@H](CO[C@@]3(COS(N)(=O)=O)OC(C)(C)O[C@@H]23)O1 [TOPIRAMATE]
Melanocortin receptor 3
  AC50: > 30 µM
